Earlier results, collected in US11591601B2, “Methods for identification and modification of lncRNA associated with target genotypes and phenotypes” (The Broad Institute, Inc., priority 2017, dated 2023).

Tested on: Factor VII
Settings: hepatocytes in vivo, Factor VII gene silencing model

| Compound | gene silencing potency series of LNP siRNA systems containing the lipid |
| --- | --- |
| 1,2-dilinoleyloxy-keto-N,N-dimethyl-3-aminopropane [DLinKDMA] | DLinKC2-DMA>DLinKDMA>DLinDMA>>DLinDAP |
| CCCCC/C=C\C/C=C\CCCCCCCC(=O)OCC(CN(C)C)OC(=O)CCCCCCC/C=C\C/C=C\CCCCC (stereo not shown) [DLinDAP, 1,2-dilineoyl-3-dimethylammonium-propane] | DLinKC2-DMA>DLinKDMA>DLinDMA>>DLinDAP |
| CCCCC/C=C\C/C=C\CCCCCCCCOCC(CN(C)C)OCCCCCCCC/C=C\C/C=C\CCCCC (stereo not shown) [DLinDMA, 1,2-dilinoleyloxy-3-N,N-dimethylaminopropane] | DLinKC2-DMA>DLinKDMA>DLinDMA>>DLinDAP |
| CCCCC/C=C\C/C=C\CCCCCCCCC1(CCCCCCCC/C=C\C/C=C\CCCCC)OCC(CCN(C)C)O1 (stereo not shown) [DLinKC2-DMA, 1,2-dilinoleyl-4-(2-dimethylaminoethyl)[1,3]-dioxolane] | DLinKC2-DMA>DLinKDMA>DLinDMA>>DLinDAP |
